Our source for the IC50 values is PubChem BioAssay AID540252 (Sanford-Burnham Center for Chemical Genomics, 2011).

Active and inactive are the calls of the source. How the calls were made is not given here. Bounds are passed on as bounds.

The test concerns the target glucose-6-phosphate dehydrogenase-6-phosphogluconolactonase (Plasmodium falciparum 3D7). The test is described as follows: PfG6PD enzyme inhibitors, direct NADPH readout, dose response, orthogonal assay, biochemical, end-point NADPH detection (AID 540252). The following applies: purified PfG6PD enzyme.
With `O=C1C=C(NCCc2cc(Br)c(O)c(Br)c2)C(=O)c2ncccc21`, the IC50 was > 80 µM (inactive).

As for `N#CC(C#N)=C1C=CC=CN1/C(=C\c1ccccc1Cl)C(=O)c1ccccc1`, the IC50 was > 80 µM (inactive).

`O=C(Nc1ccc(N2CCN(C(=O)c3ccco3)CC2)c(Cl)c1)c1cc2ccccc2o1`: the IC50 is > 80 µM (inactive).

Regarding `COc1ccc(CCn2c(NN)nc3c2c(=O)[nH]c(=O)n3C)cc1`, the IC50 was > 80 µM (inactive).

As to `COc1cc(N=Cc2c(CO)cnc(C)c2O)cc(OC)c1OC`, the IC50 is > 80 µM (inactive).

On to `Fc1cccc(Cl)c1CNc1ccc(N2CCCC2)cc1`, for which the IC50 is > 80 µM (inactive).

Take `CC(=O)Nc1ccc(S(=O)(=O)/N=C2\C(=O)c3ccccc3C([O-])=C2n2cc[n+](-c3ccccn3)c2)cc1`: the IC50 is > 80 µM (inactive).

Take `Cn1c(=O)c2c([nH]c(=S)n2CCCc2ccccc2)n(C)c1=O`: the IC50 was > 80 µM (inactive).

`COc1ccc(/C=C/c2nc3ccccc3n2C)cc1`: the IC50 was > 80 µM (inactive).

Turning to `Cc1ccc(S(=O)(=O)NNc2ccccc2)cc1`, the IC50 is 37.9 µM.

With `CCN1CCN(C(=S)c2ccc(O)cc2)CC1`, the IC50 is > 80 µM (inactive).

For `CN(C)c1cccc2c1c(NC(=O)c1ccc(Cl)cc1)nn2C`, the IC50 is > 80 µM (inactive).

Regarding `COc1ccc(CNC(=O)Cc2cn(C)c3ccccc23)c(OC)c1`, the IC50 is > 80 µM (inactive).

In the case of `O=C(COC(=O)c1cnccn1)c1ccc([N+](=O)[O-])cc1`, the IC50 was 54.9 µM.

As to `CC1(OC(=O)C2CCCC2)C(=O)C=C2C=C(c3ccsc3)N(Cc3ccc4c(c3)OCO4)C=C2C1=O` (stereo unspecified), the IC50 was > 80 µM (inactive).

With `O=c1c2ccc(F)cc2sn1-c1ccccc1`, the IC50 was 14.5 µM.

As to `CN1CCN(C(=O)c2sc(=S)n(-c3ccccc3)c2N)CC1`, the IC50 is 54.6 µM.

As to `CN=c1nc(-c2ccccc2)n(-c2ccccc2)s1`, the IC50 is 13.3 µM.

In the case of `CC1=NOC(=O)/C1=C\c1ccc(-c2ccccc2Br)o1`, the IC50 is > 80 µM (inactive).

As for `COc1cc(-c2cc(OC)c(O)c(OC)c2)cc(OC)c1O`, the IC50 is > 80 µM (inactive).

Take `COc1cc(NCc2ccccc2)c2ncn(C(C)C)c2c1`: the IC50 is > 80 µM (inactive).

Consider `Cc1ccc(/C=C/C(=O)NCc2ccc(S(N)(=O)=O)cc2)o1`, for which the IC50 was > 80 µM (inactive).

As to `COc1cc(Sc2ccc(C)cc2)c(OC)cc1N`, the IC50 was > 80 µM (inactive).

As to `O=c1c2ccccc2sn1-c1ccccc1`, the concentration for half-maximal inhibition (IC50) is 7.9 µM.

In the case of `COc1ccccc1NS(=O)(=O)c1cc(NC(=O)c2ccc(Cl)nc2)ccc1N1CCCC1`, the IC50 is > 80 µM (inactive).

On to `COc1ccc(NS(=O)(=O)c2ccc(N3CCCC3)c(NC(=S)Nc3cccc(C)c3C)c2)cc1`, for which the IC50 was > 80 µM (inactive).

As to `O=C(O)CSc1cc(NS(=O)(=O)c2cccc([N+](=O)[O-])c2)c2ccccc2c1O`, the IC50 is > 80 µM (inactive).

Consider `C=CCOc1c(Cl)cc(CNc2ccc3[nH]c(=O)[nH]c3c2)cc1OC`, for which the IC50 is > 80 µM (inactive).

Consider `O=c1c2ccccc2sn1-c1cc(S(=O)(=O)N2CCOCC2)ccc1N1CCCC1`, for which the IC50 is 15.1 µM.

For the molecule `COc1ccc(CCn2c(NN=C(C)C)nc3c2c(=O)[nH]c(=O)n3C)cc1`, the IC50 is > 80 µM (inactive).

`OCc1ccccc1SSc1ccccc1CO`: the IC50 is 56.2 µM.

Turning to `Clc1ccc2nc(-c3ccc(Br)s3)cn2c1`, the IC50 is > 80 µM (inactive).

Regarding `c1ccc(OCc2nnc3n2N=C(c2ccccc2)CS3)cc1`, the IC50 is > 80 µM (inactive).

Take `COc1ccc(CCn2c(NN=C3CCCCC3)nc3c2c(=O)[nH]c(=O)n3C)cc1`: the IC50 is > 80 µM (inactive).

For the molecule `CN(C)Cc1cc(O)c(CN(C)C)cc1O`, the IC50 was > 80 µM (inactive).

For `O=C(COc1ccccc1F)OCC(=O)c1ccc([N+](=O)[O-])cc1`, the IC50 is 44.6 µM.

As to `C=CCOc1c(Cl)cc(CNc2ccc(N(C)C)cc2)cc1OC`, the IC50 is > 80 µM (inactive).

`CCC(C)c1ccccc1OCCn1ccnc1` (stereo unspecified): the IC50 was > 80 µM (inactive).

Take `COc1ccc2ccccc2c1C1CC(=O)N2CN(C3CCCCC3)CSC2=C1C#N` (stereo unspecified): the IC50 was > 80 µM (inactive).

`Cc1ccc(-c2c(C(=O)N/N=C/c3cccs3)nnn2-c2nonc2N)cc1`: the IC50 was > 80 µM (inactive).

Consider `Cc1ccc(S(=O)(=O)/N=C2/C=C(C3C(=O)CC(C)(C)CC3=O)C(=O)c3ccccc32)cc1`, for which the IC50 is > 80 µM (inactive).

For `Cc1no[n+]([O-])c1COc1cccc(/C=N/Nc2nncn2N)c1`, the IC50 is > 80 µM (inactive).

Consider `COc1cc(/C=N/Nc2nncn2N)ccc1OCc1c(C)no[n+]1[O-]`, for which the IC50 is > 80 µM (inactive).

As to `CCN1/C(=C/C=C/C=C/C=C/c2sc3ccccc3[n+]2CC)Sc2ccccc21`, the IC50 is > 80 µM (inactive).

In the case of `CC(C)Sc1nnc(NC(=O)c2ccc3c(c2)OCO3)s1`, the IC50 is > 80 µM (inactive).

For `C[c-]1[c-](C)[c-](C)[c-](C)[c-]1C.[Fe].c1cc2nccc(N3CCCC3)[c-]2c1` (stereo unspecified), the IC50 was > 80 µM (inactive).

For the molecule `O=[N+]([O-])c1cnc(Sc2ccncn2)c([N+](=O)[O-])c1`, the IC50 was 49.3 µM.

For the molecule `CCOc1ccc(NC(=O)Cn2sc3nc(C)cc(C)c3c2=O)cc1`, the IC50 is > 80 µM (inactive).

As to `O=S(=O)(Nc1cc(Sc2ncn[nH]2)c(O)c2ccccc12)c1ccccc1`, the IC50 is > 80 µM (inactive).

Regarding `O=C1Nc2cc(C(=O)NCCCN3CCCC3)ccc2S/C1=C/c1cccc(Cl)c1`, the IC50 was > 80 µM (inactive).

Take `O=S(=O)(Nc1ccc(Cl)cc1)c1ccc(N2CCOCC2)c(NC(=S)NCCN2CCOCC2)c1`: the IC50 was > 80 µM (inactive).

With `CCOc1ccccc1CNc1ccc(O)cc1`, the IC50 was > 80 µM (inactive).

As to `CCOc1ccccc1NS(=O)(=O)c1c(C)noc1C`, the IC50 is > 80 µM (inactive).

Regarding `COc1ccc(N2C(=O)/C(=C/c3cccs3)NC2=S)cc1`, the IC50 was > 80 µM (inactive).

With `COc1ccc(NC2CCCN(Cc3cccc4cnccc34)C2)cc1OC` (stereo unspecified), the IC50 is > 80 µM (inactive).

`CC1=CC(C)(C)Nc2ccc(OC(=O)CN3C(=O)c4cccc5cccc(c45)C3=O)cc21`: the IC50 is > 80 µM (inactive).

In the case of `CCOC(=O)C1CCCN(C(=O)Cn2sc3nc(C)cc(C)c3c2=O)C1` (stereo unspecified), the IC50 is > 80 µM (inactive).

For `O=C(COc1cccc2ccccc12)Nc1ccc(Cl)cc1C(=O)O`, the IC50 is > 80 µM (inactive).

With `NCCc1cc(O)c(O)cc1O`, the IC50 was > 80 µM (inactive).

As for `Cc1cc(C)c2c(=O)n(CC(=O)NC3CCCC3)sc2n1`, the IC50 is > 80 µM (inactive).

As to `Cc1ccccc1OCC(=O)N/N=C/c1ccc(Sc2nc3ccccc3s2)o1`, the IC50 was > 80 µM (inactive).

For the molecule `COc1cc(C(=O)O/N=C2/C=C(C)C(=O)C=C2C)cc(OC)c1OC`, the IC50 was > 80 µM (inactive).

On to `CN(C)c1nc(=NCc2cccs2)ss1`, for which the IC50 was > 80 µM (inactive).

Take `C=CCc1ccccc1OCC(=O)N/N=C/c1ccccc1OCC`: the IC50 was > 80 µM (inactive).

On to `O=C(Cn1sc2ccccc2c1=O)Nc1ccccc1`, for which the IC50 was 15.6 µM.

As for `C=CCSc1nnc(NC(=O)c2ccc(Cl)nc2)s1`, the IC50 was > 80 µM (inactive).
